The values below are quoted from earlier work in EP4810022A1, “MICROPARTICLES COMPRISING TIRZEPATIDE OR PHARMACEUTICALLY ACCEPTABLE SALT THEREOF, AND MANUFACTURING METHOD THEREFOR” (Inventage Lab Inc., priority 2024, dated 2025).

For data set [1] the following is noted: reported.
For data set [2] the following is noted: when taken for one year.

As to `Cc1c(C(=O)NN2CCCCC2)nn(-c2ccc(Cl)cc2Cl)c1-c1ccc(Cl)cc1` [rimonabant], the side effects entry in data set [1] is given as “central nervous system side effects”.

On to `CCCCCCCCCCC[C@@H](C[C@@H]1OC(=O)[C@H]1CCCCCC)OC(=O)[C@H](CC(C)C)NC=O` [orlistat], for which the body weight loss result in data set [2] is listed as “about 4 kg”.

For the molecule `CC(C)CC(N(C)C)C1(c2ccc(Cl)cc2)CCC1` (stereo not drawn) [sibutramine], the side effects entry in data set [1] is “cardiovascular side effects”.
